One assay deals with T1, GPCR6A (Mus musculus, UniProt Q8K4Z6).
T1 sequence (Q8K4Z6 21-928): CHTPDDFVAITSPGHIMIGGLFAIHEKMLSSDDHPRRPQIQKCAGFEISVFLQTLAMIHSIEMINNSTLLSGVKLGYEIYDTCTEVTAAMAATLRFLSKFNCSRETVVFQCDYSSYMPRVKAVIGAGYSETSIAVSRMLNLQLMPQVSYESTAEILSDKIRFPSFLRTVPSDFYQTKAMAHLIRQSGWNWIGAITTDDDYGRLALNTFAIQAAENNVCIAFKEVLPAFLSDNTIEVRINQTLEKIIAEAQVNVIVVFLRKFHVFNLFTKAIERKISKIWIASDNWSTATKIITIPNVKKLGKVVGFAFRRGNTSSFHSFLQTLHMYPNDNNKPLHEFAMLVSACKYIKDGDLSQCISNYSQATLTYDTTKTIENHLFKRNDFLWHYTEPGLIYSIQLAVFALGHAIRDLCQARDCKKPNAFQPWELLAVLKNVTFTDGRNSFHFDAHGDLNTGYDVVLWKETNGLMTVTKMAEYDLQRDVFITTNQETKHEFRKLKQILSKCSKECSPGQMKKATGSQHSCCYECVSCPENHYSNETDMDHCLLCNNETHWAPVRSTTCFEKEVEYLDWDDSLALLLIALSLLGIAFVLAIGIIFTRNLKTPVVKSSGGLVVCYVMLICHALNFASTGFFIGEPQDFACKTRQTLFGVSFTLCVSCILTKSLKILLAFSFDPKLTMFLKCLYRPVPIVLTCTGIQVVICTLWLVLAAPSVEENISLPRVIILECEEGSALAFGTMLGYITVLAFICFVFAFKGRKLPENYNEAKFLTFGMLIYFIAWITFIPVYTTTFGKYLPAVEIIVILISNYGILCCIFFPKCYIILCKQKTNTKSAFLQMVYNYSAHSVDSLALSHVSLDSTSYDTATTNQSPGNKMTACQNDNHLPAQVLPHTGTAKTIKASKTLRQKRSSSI
The settings on record: Christiansen et al., 2007; cited from earlier work.

Another assay concerns the target T2, GPRC6a (Mus musculus, UniProt Q8K4Z6).
T2 construct: testes from 8-week old mice were snap frozen in liquid nitrogen and 20 μm thick sections were prepared; from tissue; host or cells: mouse testis sections (Leydig cells), 8-week old mice
T2 sequence (Q8K4Z6 21-928): T1 sequence (Q8K4Z6 21-928)
As to the kind of experiment: Receptor binding assay with biotinylated osteocalcin on testis sections. The procedure:
For binding studies, testes from 8-week old mice were snap frozen in liquid nitrogen and 20 μm thick sections were prepared and dessicated overnight at +4° C. under vacuum. On the following day, sections were rehydrated in ice-cold binding buffer (50 mM TrisHCl, pH 7.4, 10 mM MgCl2, 0.1 mM EDTA and 0.1% BSA) for 15 minutes and incubated for 1 hour in the presence of biotinylated osteocalcin. […] After 3 washes in cold PBS, sections were incubated for 1 hour in the detection system containing 0.1% BSA (ABC Elite, Vector Laboratories), washed again, and incubated with DAB peroxidase substrate kit (Vector Laboratories) according to the manufacturer's protocol. After a final wash, sections were mounted in water-based mounting medium. As negative controls, sections incubated with the detection system only (ABC Elite and DAB) or OstR−/− testis sections (Basura et al., 2008, Hear. Res. 244:45-50) were used.

For a further assay, the system named is Leydig cells. The assay is described as follows: CREB phosphorylation Western blot of Leydig cells. Format: cell-based, mouse. As to the method: (§1) Western blotting was performed according to standard procedures. Frozen testes were homogenized and lysed with 1×RIPA buffer. Membranes were blocked and then incubated overnight with primary antibody in TBST-5% BSA, followed by incubation with appropriate HRP-conjugated secondary antibody. Signals were visualized with ECL. The following primary antibodies were used: anti-phospho-tyrosin (9416), anti-pERK1/2 (4370), anti-ERK1/2 (9102), anti-pCREB (9198), anti-CREB (4820), anti-Cleaved Caspase-3 (Asp175) (9661) (all from Cell Signaling), and anti-tACE (H-300): sc-13973 and anti-CHD5 (H-185): sc-68390 from Santa Cruz; the anti-osteocalcin was described in Ferron et al., 2010, Biochem. Biophys. Res. Comm. 397:691-696.

In assay [1] the test system is primary Leydig cells. As to the kind of experiment: Measurement of intracellular calcium in primary Leydig cells. Format: cell-based, mouse. The procedure: Isolated primary Leydig cells were resuspended in buffer containing 95 mM NaCl, 4.8 mM KCl, 1.2 mM MgSO4, 1.2 mM KH2PO4, 5.6 mM glucose, 25 mM NaHCO3, 1.7 mM CaCl2, 0.25 mM sodium purivate, 1× PenStrep, 20 mM HEPES, 0.3% BSA, pH 7.4 at 37° C. (reagents from Sigma Aldrich, except for sodium pyruvate, PenStrep and HEPES from Invitrogen), plated at the density of 17-25000 cells/well on 96-well plate and placed in an incubator at 33° C., 5% CO2 for 2 hours. Afterward, the FLIPR dye (Calcium Plus Assay Kit Dye, Molecular Devices) diluted in the same buffer supplemented with 2.5 mM probenecid, pH 7.4 was exchanged for the previous medium and incubated with the cells for an additional 30-45 minutes. Following the incubation with the dye, cells were placed in a BD Pathway 855 High-Content Bioimager, recorded for 10-20 seconds to get baseline fluorescence, and then stimulated with doses of osteocalcin ranging from 0.3 to 500 ng/ml as well as control substances: medium, calcium ionophore A23187, 10% FBS, 400 μM Arginine^2+, 100 μM ATP/UTP mix and recorded for an additional 2-5 minutes. The probing time was varied between 1 and 5 seconds. Obtained images were analyzed for the change in fluorescence using ImageJ 1.41.

Assay [2] has as its system TM3 Leydig cells. As to the kind of experiment: qPCR of steroidogenic genes in TM3 Leydig cells treated with osteocalcin. Conditions: osteocalcin 0.3 to 300 ng/ml, 2 hours. Format: cell-based, mouse. As to the method:
TM3 cells were treated with increasing amounts of osteocalcin and assayed for the expression of genes encoding enzymes of the steroidogenic cascade. […] Thus, whether looked at by in vivo or cell-based assays, osteocalcin promotes testosterone biosynthesis.
Gene expression analyses were performed using real time PCR. DNAse I-treated total RNA was converted to cDNA with the SuperScript III kit (Invitrogen). Real-time PCR were performed using the Taq SYBR Green Supermix with ROX (Biorad) on an MX3000 instrument (Stratagene); beta-actin amplification was used as an internal reference for each sample. All primers were from SuperArray.
(§2) RNA was purified from tissues, primary Leydig cells, or cultured cells using TRIZOL® (Invitrogen). RNA isolation, cDNA preparation, and qPCR analysis was carried out following standard protocols. qPCR analyses were performed using specific quantitative PCR primers from SABiosciences.
Background: Real-time PCR tracks product formation cycle by cycle.

Assay [3] deals with WT mice. As to the kind of experiment: Circulating testosterone after osteocalcin injection in WT mice. Format: in vivo, mouse. Conditions: injection 3 ng/g of body weight, 1, 4 and 8 hours. The procedure:
(§3) Caudal epididymides were minced in 1 ml PBS and the number of cells released counted after 1 hour. The total sperm count was assessed in the final suspension by using a hemacytometer (Dakhova et al., 2009, Endocrinology 150:404-412). Circulating levels of testosterone, estradiol (E2), and progesterone were measured by radioimmunoassay (RIA) from Diagnostic Systems Laboratories (Testosterone RIA DSL-4000, Estradiol RIA DSL-43100, and Progesterone RIA-3900).

In the next assay the test system is testis explants. The assay is described as follows: Osteocalcin stimulation of testis explants, testosterone RIA. Format: cell-based, mouse. The settings on record: increasing amounts of osteocalcin (0-100 ng/ml). The procedure:
(§4) Adult mouse Leydig cells were isolated by mechanical dissociation of the testes followed by purification on a 0-90% Percoll gradient (Hunter et al., 1982, Mol. Cell. Endocrinol. 25:35-47; Schumacher et al., 1978, FEBS Lett. 91:333-338). Primary Leydig cells were cultured in Minimal Essential Medium (MEM+GlutaMAX, Invitrogen) supplemented with 1× PenStrep, 25 mM HEPES, pH 7.4 and 0.07% BSA at 33° C. in 5% CO2. After 3 hours of attaching and starvation, cells were washed once with culture medium and then used for experiments. The preparation of testis explants was adapted from Powlin et al., 1998, Toxicol. Sci. 46:61-74. Explants were washed 3 times with PBS 1× and placed in serum free RPMI medium for 2 hours before being used for experiments.
(§5) After 1 hour, an aliquot of medium was collected for measurements of testosterone. Cells were then maintained for 3 additional hours and lysed in 1 ml TRIZOL® (Invitrogen) for RNA isolation.
as §3

The test system of assay [4] is WT mice. The assay is described as follows: Daily osteocalcin injections in WT mice for 12 weeks. The assay is classed as in vivo, mouse. The procedure: WT mice (n=6) were injected daily with either 3 ng/g or 30 ng/g of uncarboxylated osteocalcin for 12 weeks. […] Likewise, serum testosterone levels were increased in osteocalcin-injected mice compared to vehicle-injected mice (FIG. 7D).
as §3
One testis or ovary from each mouse was randomly selected for molecular analysis and the other one was used for histology. Specimens were collected, weighed, and fixed in Bouin's fixative for histological analyses before being dehydrated through graded ethanol, processed for paraffin embedding, and serially sectioned at 5 μm. For histological analysis, sections of testes and ovaries were stained with periodic acid-Schiff and counterstained with hematoxylin. TUNEL labeling was performed using the ApopTag Peroxydase In Situ Apoptosis detection kit (Millipore-57100). Apoptotic indices were determined by counting the total number of TUNEL-positive cells or the number of TUNEL positive spermatocytes for all stage tubules. Approximately 500 tubules were counted on at least 4 cross-sections located at midtestis for each animal.

Assay [5] relates to TM3 Leydig cells. The assay is described as follows: Anti-phospho-tyrosine Western blot of Leydig cells. The settings on record: 1 minute. Format: cell-based, mouse. As to the method:
as §1

Assay [6] has as its system primary Leydig cells. The assay is described as follows: Osteocalcin stimulation of primary Leydig cells, testosterone RIA. The assay is classed as cell-based, mouse. Conditions: increasing amounts of osteocalcin (0-100 ng/ml). The procedure:
as §4, §5, §3

Assay [7] relates to TM3 Leydig cells. The assay is described as follows: ERK1/2 phosphorylation Western blot of Leydig cells. The assay is classed as cell-based, mouse. The procedure:
as §1
Background: Immunoblotting shows a protein as a band on a membrane.

Assay [8] concerns TM3 Leydig cells. As to the kind of experiment: cAMP quantification in Leydig cells. Format: cell-based, mouse. Conditions: 30 minutes, 0.5 mM IBMX. As to the method:
For cAMP measurements, TM3 Leydig cells were plated in 6 cm dishes (10^7 cells per dish) a day before experiment. Cells were serum starved for 16 hours (in the presence of 0.1% BSA) then pre-incubated in the presence of 0.5 mM IBMX for 30 minutes and stimulated with the indicated concentration of osteocalcin (also in the presence of 0.5 mM IBMX) for 30 minutes. cAMP concentration was measured with the Parameter cAMP kit (R&D Systems, KGE002).

The next assay concerns Leydig cell cultures. The assay is described as follows: Expression of testosterone biosynthesis enzymes in Leydig cell cultures treated with uncarboxylated osteocalcin. Format: cell-based, mouse. The settings on record: qPCR. The procedure: as §4, §5, §2
The mark [9] stands for this setting: WT mice, 3 ng/g or 30 ng/g daily for 12 weeks, both doses.

Where no end group is shown, it is not given here.

As to `N=C(N)NCCC[C@H](N)C(=O)O` [arginine], the “activation of GPCR6A” value at GPCR6A was “activate”.

In the case of `NCCCC[C@H](N)C(=O)O` [lysine], the “activation of GPCR6A” value on GPCR6A was “activate”.

As for `NCCC[C@H](N)C(=O)O` [ornithine], the “activation of GPCR6A” value on GPCR6A is reported as “activate”.

On to “biotinylated osteocalcin: biotinylated osteocalcin used as a ligand in binding assays on mouse testes (YLGASVPSPDPLEPTREQCELNPACDELSDQYGLKTAYKRIYGITI; ends and bridges not checked; also: biotinylated, site not given here)”, for which the “binding to GPRC6a-deficient testes” value with GPRC6a (GPRC6a-deficient testis sections) is “no binding was detected”. Also, in the assay with GPRC6a (WT mouse testis sections), the “binding to Leydig cells” value was “bound”.

Consider “uncarboxylated osteocalcin: Recombinant osteocalcin bacterially produced as GST fusion, cleaved with thrombin; completely undercarboxylated at all three sites (YLGASVPSPDPLEPTREQCELNPACDELSDQYGLKTAYKRIYGITI)”, for which the CREB phosphorylation result in the assay on Leydig cells is on record as “favors”. Further, the intracellular calcium accumulation entry in the assay on primary Leydig cells [1] is recorded as “did not induce”. The “expression of StAR, Cyp11a and Cyp17” value in the assay with TM3 Leydig cells [2] is reported as “specifically increased”. Further, the “circulating levels of testosterone” value with WT mice [3] is listed as “increased”. For the same compound, the testosterone secretion result in the assay on testis explants and in the assay with primary Leydig cells [6] was “dose-dependent increase” throughout. Moreover, in the assay on WT mice [4] (WT mice injected daily, compared to vehicle-injected mice), the serum testosterone levels result is listed as “increased”. Also, the sperm cell apoptosis result in the assay on WT mice [4] (setting [9]) is “decreased”. Further, in the assay on WT mice [4] (setting [9]), the sperm count result is “significantly increased”. For the same compound, the testis weight result in the assay on WT mice [4] (setting [9]) is listed as “significantly increased”. Also, the tyrosine phosphorylation entry in the assay with TM3 Leydig cells [5] (listed as Osteocalcin) is recorded as “did not induce”; with TM3 Leydig cells [5] (listed as osteocalcin) it was “not in osteocalcin treated cells”. Moreover, the results for the “ERK activation (ERK1/2 phosphorylation)” value with TM3 Leydig cells [7] (listed as Osteocalcin) and in the assay on TM3 Leydig cells [7] (listed as osteocalcin) were “did not induce” and “absence of ERK1/2 phosphorylation”, respectively. Further, the “competition of osteocalcin binding” value in the assay with GPRC6a (excess (100 fold) of unlabeled competitor, WT testis sections) is given as “competed away”. Further, the cAMP production entry in the assay with TM3 Leydig cells [8] (listed as Osteocalcin) is “consistently induced”; with TM3 Leydig cells [8] (listed as osteocalcin), “increased”. In addition, in the assay on Leydig cell cultures, the “expression of StAR, Cyp11a, Cyp17 and 3β-HSD” value was “increased”.

The values are drawn from patent US8883739B2, “Osteocalcin as a treatment for male reproductive disorders” (The Trustees of Columbia University in the City of New York, priority 2010, dated 2014).
